The values that follow come from patent US4536396A, “Synergistic sweetening compositions” (Pfizer Inc., priority 1983, dated 1985).

For experiment [1] the following is noted: cited from earlier work.
Experiment [2] is described as follows: Sensory analysis of relative sweetness intensity and taste quality of aqueous solutions compared with sucrose solutions. How it is done:
The relative sweetness intensity and quality of CP-54,802, AS-K and mixtures of CP-54,802 and AS-K were determined by sensory analysis. These determinations were carried out in a facility designed for controlled tasting, flavor research and evaluation of food additives, including a separate preparation room and individual tasting booths with complete air-conditioning, controlled lighting, running water and a sink for expectoration.
Aqueous solutions of sucrose were prepared at concentrations (w/w) of 2, 3, 4, 5, 6, 7, 8, 9, 10, 11 and 12% along with a sample of one of the test compounds at the levels specified in the test experiments. A beaker containing a solution of the test compound identified only by a coded digit was submitted to the taster by a co-worker along with a beaker containing the above sucrose solutions. The sweetness intensity of the test compound was compared with one or more of the sucrose control solutions to determine whether that particular sucrose reference sample was of lesser, greater or equal sweetness. The taste quality of the test sample was then characterized by comparison with the sucrose solution. In some instances a reference aqueous solution containing either CP-54,802 and/or AS-K alone was also used to characterize the taste quality of mixture of CP-54,802 and AS-K.
After selecting the particular sucrose solution equal in sweetness to the AS-K solution, subsequent test comparisons of the AS-K and sucrose solution at closest sweetness intensity were performed to recheck the intensity value and to characterize the taste quality of the AS-K. By this means, the following results were obtained: […]

Experiment [3] is described as follows: Taste quality and sweetening potency in typically prepared edible products (Table III). From the text: The ultimate compositions for edible use, or for use as oral hygienic products or as formulated medicinal agents, are readily prepared, using methods generally known in the food technology and pharmaceutical arts. The taste quality of such typically prepared edible products prepared with sucrose, with AS-K alone and with one of present combinations as sweetening agent are summarized in Table III.

[4] abbreviates: at 2% sucrose equivalent in water.
Where [5] appears, read: at 3% sucrose equivalent in water.
Where [6] appears, read: at 4% sucrose equivalent in water.
The mark [7] stands for this setting: at 5% sucrose equivalent in water.
Setting [8] is: at 6% sucrose equivalent in water.
Setting [9] is: at 7% sucrose equivalent in water, AS-K values above 6% only approximate.
[10] abbreviates: at 8% sucrose equivalent in water, AS-K values above 6% only approximate.
Where [11] appears, read: at 9% sucrose equivalent in water, AS-K values above 6% only approximate.
The mark [12] stands for this setting: at 10% sucrose equivalent in water, AS-K values above 6% only approximate.
[13] abbreviates: compared to 10% sucrose in water.
Where [14] appears, read: equal in sweetness to 2% sucrose (w/w) in water.
Where [15] appears, read: equal in sweetness to 3% sucrose (w/w) in water.
Setting [16] is: equal in sweetness to 4% sucrose (w/w) in water.
Where [17] appears, read: equal in sweetness to 5% sucrose (w/w) in water.
[18] abbreviates: equal in sweetness to 6% sucrose (w/w) in water.
Setting [19] is: equal in sweetness to 7% sucrose (w/w) in water.
[20] abbreviates: equal in sweetness to 8% sucrose (w/w) in water.
Where [21] appears, read: equal in sweetness to 9% sucrose (w/w) in water.
[22] abbreviates: equal in sweetness to 10% sucrose (w/w) in water.

As for `CC1=CC(=O)NS(=O)(=O)O1` [AS-K, 6-Methyl-1,2,3-oxathiazin-4(3H)-one-2,2-dioxide], the “Sweetness relative to cane sugar” value in experiment [1] (in water at concentrations equivalent in sweetness to a 4% solution of cane sugar) was 130. Further, the “Concentration equivalent to 4% cane sugar” value in experiment [1] (in water) was 0.031%. Also, the “Potency Sucrose = 1” value in experiment [2] (setting [4]) was determined as 250 Sucrose = 1; in experiment [2] (setting [5]), 200 Sucrose = 1; in experiment [2] (setting [6]), 160 Sucrose = 1; in experiment [2] (setting [7]), 110 Sucrose = 1; in experiment [2] (setting [8]) it was 90 Sucrose = 1; in experiment [2] (setting [9]) it was 90 Sucrose = 1. Further, the “Potency Sucrose = 1” value in experiment [2] (setting [10]) is reported as 90 Sucrose = 1; in experiment [2] (setting [11]), 85 Sucrose = 1; in experiment [2] (setting [12]) it was 80 Sucrose = 1. Moreover, in experiment [2] (at concentrations equivalent to 6-10% sucrose), the Relative sweetness is reported as at most 90. Further, in experiment [2] (setting [13]), the “Concentration (g/100 ml) ≡ 10% Sucrose” value worked out at 0.1250 g/100 ml. In experiment [2] (setting [13]), the “Potency of Mixture” value is recorded as 80. For the same compound, the “Equivalent Concentration %” value in experiment [2] (setting [14]) is reported as 0.0080%; in experiment [2] (setting [15]), 0.0150%; in experiment [2] (setting [16]), 0.0250%; in experiment [2] (setting [17]) it was 0.0455%; in experiment [2] (setting [18]), 0.0667%; in experiment [2] (setting [19]), 0.0777%. Further, the “Equivalent Concentration %” value in experiment [2] (setting [20]) stood at 0.0889%; in experiment [2] (setting [21]), 0.1059%; in experiment [2] (setting [22]), 0.1250%. Moreover, the “Potency of Sweetening Agent in Product” value in experiment [3] (7-Up-type carbonated drink) was below 90; in experiment [3] (Cola carbonated drink) it was 90; in experiment [3] (Lemonade drink), below 90; in experiment [3] (Orange gelatin dessert) it was below 90; in experiment [3] (Peppermint hard candy), below 90; in experiment [3] (Strawberry drink), below 90. Further, the “Potency of Sweetening Agent in Product” value in experiment [3] (Vanilla cakes) was 90; in experiment [3] (Vanilla frozen dessert) it was below 90; in experiment [3] (Vanilla pudding), below 90.
Consider `C[C@@H](NC(=O)[C@@H](N)CC(=O)O)C(=O)NC1C(C)(C)SC1(C)C` [CP-54,802, 3-(L-Aspartyl-D-alaninamido)-2,2,4,4-tetramethylthietane], for which the “Potency Sucrose = 1” value in experiment [2] (setting [4]) is recorded as 2,900 Sucrose = 1; in experiment [2] (setting [5]) it was 2,850 Sucrose = 1; in experiment [2] (setting [6]), 2,800 Sucrose = 1; in experiment [2] (setting [7]), 2,500 Sucrose = 1; in experiment [2] (setting [8]), 2,300 Sucrose = 1; in experiment [2] (setting [9]) it was 2,250 Sucrose = 1. Also, the “Potency Sucrose = 1” value in experiment [2] (setting [10]) was 2,112 Sucrose = 1; in experiment [2] (setting [11]) it was 2,075 Sucrose = 1; in experiment [2] (setting [12]) it was 2,000 Sucrose = 1. The “Equivalent Concentration %” value is on record as 0.00069% in experiment [2] (setting [14]); 0.00105% in experiment [2] (setting [15]); 0.00143% in experiment [2] (setting [16]); 0.002% in experiment [2] (setting [17]); 0.0026% in experiment [2] (setting [18]); 0.0031% in experiment [2] (setting [19]). The “Equivalent Concentration %” value in experiment [2] (setting [20]) is on record as 0.00378%; in experiment [2] (setting [21]), 0.0043%; in experiment [2] (setting [22]), 0.005%.
As to `OC[C@H]1O[C@@](CO)(O[C@H]2O[C@H](CO)[C@@H](O)[C@H](O)[C@H]2O)[C@@H](O)[C@@H]1O` [Sucrose, reference compound], the “Potency of Sweetening Agent in Product” value in experiment [3] (7-Up-type carbonated drink), in experiment [3] (Cola carbonated drink), in experiment [3] (Lemonade drink), in experiment [3] (Orange gelatin dessert), in experiment [3] (Peppermint hard candy) and in experiment [3] (Strawberry drink) was 1 in each case. In addition, the “Potency of Sweetening Agent in Product” value in experiment [3] (Vanilla cakes), in experiment [3] (Vanilla frozen dessert) and in experiment [3] (Vanilla pudding) was 1 each time.
